Where a name gives a salt, the structure may show the parent alone.
Experiments:
[1] = tested on: cellulase from Aspergillus niger; assay: cellulase activity: viscosity (flow time) of carboxymethyl cellulose solution; assay type: biochemical; settings: additive 10mM dm⁻³ pre-incubated with enzyme one hour at 25°C, about 24 minutes in the absence of cellulase; for Flow Rate (b) With additive 10: flow time after 10 minutes incubation; for Flow Rate (b) With additive 60: flow time after 60 minutes incubation
Procedure: To determine cellulase activity, 15cm³ of a 1% w/v solution of carboxymethyl cellulose in 50mM/dm³ of a tris (hydroxymethyl) aminomethane/hydrochloric acid buffer having a pH of 9, was incubated at 25°C with 0.01cm³ of a 10mg.cm⁻³ aqueous solution of cellulase from Aspergillus niger obtained from the Sigma Chemical Company.
The viscosity of the cellulose solution was determined after being incubated with the cellulase for either 10 or 60 minutes
To determine the effect of an additive on the spoilage activity of the enzyme, the compound was incubated with the enzyme at 25°C for a period of one hour, the concentration of the additive being 10mM dm⁻³ . The pre-incubated mixture was then added to a carboxymethyl cellulose solution of the type previously described. The resulting mixture was incubated and the viscosity was determined after 10 and 60 minutes incubation.

[2] = tested on: lipase from Candida cylindracea; assay: lipase activity, turbidimetric method with triolein; assay type: biochemical; settings: enzyme CC; 9 millimoles; incubated 30 minutes at 25°C, pH 9.2; relative to control
Procedure: (§1) N,N¹-dichlorodimethyl hydantoin in an amount of 9 millimoles was dissolved in ethanol and added to a lipase in a tris (hydroxymethyl) aminomethane/hydrochloric acid buffer at a pH of 9.2. The mixture was incubated for 30 minutes at 25°C and neutralised by the addition of thiosulphate. The activity of the enzyme was determined as described hereafter.
(§2) Lipase activity was determined by the turbidimetric method described on pages 26 to 34 of "Methods of Enzymatic Analysis" Third Edition, edited by H V Bergmeyer and published by Verlag Chemie. The decrease in the light scattering of triolein (1,2,3-tris[cis-9-octadecenoyl]glycerol) by lipase was measured at 25°C and 350 nanometres on a Perkin-Elmer Lambda 15 spectrophotometer. Light scattering was measured on 2.8cm³ of an aqueous solution containing 24 micromoles of "Tris" buffer at pH 9.2, one micromole of calcium chloride, 35 micromoles of sodium chloride, 17.5 micromoles of sodium deoxycholate and 0.28 micromole of triolein. The activity was determined by the addition of 5mm³ of an aqueous solution containing 4.5mg cm⁻³ of lipase. Table Two

[3] = tested on: lipase from Pseudomonas species; assay: as above; assay type: biochemical; settings: enzyme PS; 9 millimoles; incubated 30 minutes at 25°C, pH 9.2; relative to control
Procedure: as §1, §2

protease from S. griseus = assay: protease catalysed hydrolysis of chromogenic substrate; assay type: biochemical; settings: substrate BTEE, one hour at 25°C, pH7
Procedure: N,N¹-dichlorodimethyl hydantoin was dissolved in ethanol in a known amount and was added to a protease in a 0.1M potassium phosphate buffer containing potassium dihydrogen phosphate and dipotassium hydrogen phosphate at pH7. The mixture was incubated for one hour at 25°C and the enzyme activity was then compared to that of a control by monitoring the protease catalysed hydrolysis of an appropriate chromogenic substrate.

[4] = tested on: amylase (1,4-α-D-glucan-glucanhydrolase; EC 3.2.1.1); assay: amylase activity in the breakdown of starch (3,5-dinitrosalicylate, absorbance at 540nm); assay type: biochemical, Bacillus species; settings: amylase incubated for 90 minutes with 9 X 10⁻⁴M compound; absorption at 540nm
Procedure: A sample of amylase (1,4-α-D-glucan-glucanhydrolase; EC 3.2.1.1) from a Bacillus species (amylase sample obtained from the Sigma Chemical Company) was tested for activity in the breakdown of starch in the presence and absence of N,N¹-dichlorodimethyl hydantoin.
The activity of the amylase was estimated by a modification of the method described in Methods in Enzymology, published by the Academic Press, Volume 1, on page 149.
1g of potato amylopectin (a soluble starch) was dissolved in 200cm³ of a 20mM sodium phosphate aqueous buffer solution adjusted to pH7. 1cm³ of this solution was equilibrated in a water bath maintained at 25 °C. To the foregoing solution were added 2mm³ of an aqueous solution containing amylase in a concentration of 1mg of amylase/cm³ of solution. The mixture was incubated at 25 °C for five minutes. The reaction was then stopped by the addition of 1cm³ of a 0.4M aqueous sodium hydroxide solution containing 10mg/cm³ of 3,5-dinitrosalicylate and 0.3g/cm³ of sodium potassium tartrate. The resultant mixture was placed in a boiling water bath for five minutes, cooled rapidly and diluted with 10cm³ of water (deionised and subsequently doubly distilled in glass apparatus). The absorbance of the resulting mixture at 540nm was determined using a Perkin Elmer LAMBDA 15 spectrophoto meter.

[5] = molecular target: chymotrypsin (EC 3.4.21.1) (Bos taurus, UniProt P00766); assay: protease catalysed hydrolysis of chromogenic substrate; assay type: biochemical; settings: pH 7, substrate BTEE, one hour at 25°C, pH7, read-out: % of activity retained (h)
Procedure: N,N¹-dichlorodimethyl hydantoin was dissolved in ethanol in a known amount and was added to a protease in a 0.1M potassium phosphate buffer containing potassium dihydrogen phosphate and dipotassium hydrogen phosphate at pH7.

[6] = tested on: purified components of the cellulase complex; settings: Wood et al, Biochem.J. (1980), 189, 51 to 65; cited from earlier work

Row | Compound | Flow Rate (b) With additive 10 [1] [min] | Flow Rate (b) With additive 60 [1] [min] | further results
1 | Cln1cncn1 [CT, 1-chloro-1,2,4-triazole] | 23.50 | 22.90 | –
2 | O=S(=O)(c1ccccc1)N(Cl)Cl [DCBS, N,N-dichlorobenzene sulphonamide] | 21.20 | 18.80 | –
3 | O=c1[nH]c(=O)n(Cl)c(=O)n1Cl [DCIA, dichloroisocyanuric acid] | 22.10 | 22.30 | –
4 | O=c1[nH]c(=O)n(Cl)c(=O)n1Cl [DCIS, sodium salt of dichlorosiocyanuric acid] | 21.90 | 19.40 | –
5 | CC1(C)C(=O)N(Cl)C(=O)N1Cl [DCMH, N,N¹-dichlorodimethyl hydantoin] | 23.10 | 22.90 | % of activity retained (d) [2]: 14%; % of activity retained (d) [3]: 45%; % of activity retained (h) (protease from S. griseus; DCMH 0.9 mM): 88%; % of activity retained (h) (protease from S. griseus; DCMH 9.0 mM): 9%; breakdown of starch to sugar [4]: no breakdown of starch to sugar could be deteced; activity at 900 µM ([5]; DCMH 0.9 mM): 66%; activity at 9000 µM ([5]; DCMH 9.0 mM): 29%
6 | O=C1CCC(=O)N1Br [N-bromosuccinimide] | – | – | effect on the activity of the enzyme [6]: potent inhibitor
7 | CC(=O)OI(OC(C)=O)c1ccccc1 [PIDA, phenyl iodonium di-acetate] | 22.60 | 21.80 | –
8 | O=C1N(Cl)C2C(N1Cl)N(Cl)C(=O)N2Cl (centres unmarked) [TCG, tetrachloroglycoluril] | 23.60 | 23.00 | –
9 | CC12N(Cl)C(=O)N(Cl)C1(C)N(Cl)C(=O)N2Cl (centres unmarked) [TCMG, tetrachloro-dimethyl glycoluril] | 22.80 | 22.50 | –
10 | sodium tetrachloroaurate [STCA] | 23.80 | 23.70 | –

Reference: EP0404374A2, “Composition” (IMPERIAL CHEMICAL INDUSTRIES PLC, priority 1989, dated 1990)
